Results reported in paper PMC6801448, “The Antioxidant and Antiproliferative Activities of 1,2,3-Triazolyl-L-Ascorbic Acid Derivatives” (International Journal of Molecular Sciences, 2019).
Where two headings read alike, the source gives them in different places.

Key:
[1] = test system: SW620 (colorectal adenocarcinoma, metastatic); experiment: MTT proliferation assay, SW620; format: cell-based; conditions: Homo sapiens, SW-620, 72 h
Description: (§1) Human tumor cell lines HeLa (cervical carcinoma), SW620 (colorectal adenocarcinoma, metastatic), A549 (lung adenocarcinoma), MCF−7 (breast adenocarcinoma), CFPAC-1 (pancreatic adenocarcinoma, metastatic), HCT-116 (colorectal carcinoma), and HepG2 (hepatocellular carcinoma), and normal cell lines HFF-1 (foreskin fibroblasts) and WI-38 (immortalized human lung fibroblast), were from the US American Type Culture Collection (ATCC, Manassas, VA, USA). Cells were cultured in a liquid nutrient medium (Dulbecco’s Modified Eagle Medium, LONZA, Basel, Switzerland) supplemented with 10% fetal bovine serum (FBS, Gibco, Grand Island, NY, USA), 2 mM L-glutamine (GIBCO, Grand Island, NY, USA), 100 μg/mL penicillin, and 100 μg/mL streptomycin (LONZA, Basel, Switzerland), in an incubator (NÜVE, Ankara, Turkey), at a humid atmosphere with 5% CO2 at 37 °C. Trypsin/EDTA Solution (Lonza, Basel, Switzerland), was used for cell passaging and cell detachment.
(§2) Adherent cells were seeded on 96 well microtiter plates (Falcon, New York, NY, USA) at a seeding density of 5000 cells per well, added in 150 μL of cell suspension in a nutrient medium. 24 h after seeding, cells were treated with compound 4b–4g, 4i, 4k–4t, 4v, 7c–7g, and 7i–7q dilutions in the range of 0.01 μM to 100 μM. L-ascoric acid (Sigma Aldrich, Darmstadt, Germany) and Carboxyamidotriazole (Sigma Aldrich, Darmstadt, Germany) were used as control compounds. Incubation of the cells with the compounds were performed for 72 h in a 5% CO2, in humid atmosphere at 37 °C. After incubation, nutrient medium was removed and 40 μL of the MTT reagent ([…]-2,5-diphenyltetrazole bromide (Invitrogen, Carlsbad, CA, USA) was added to each well. 3 h after incubation, 160 μL of DMSO (VWR CHEMICALS, Radnor, PA, USA) were added to each well to dissolve the crystals of purple formazane. The absorbance was measured at 570 nm (TECAN SUNRISE Microtiter plate reader (Männedorf, Switzerland). The experimentally measured optical densities (OD) were converted to the PG (percentage of growth), using the formulas according to the protocol assumed by NIH (National Institute of Health). The IC50 values (concentration causing 50% cell growth inhibition) for each compound were calculated by regression analysis of the survival count curve of the concentrations of the tested compounds. The results were processed in Excel 2010 (Microsoft, Redmond, WA, USA).

[2] = test system: HepG2 (hepatocellular carcinoma); experiment: MTT proliferation assay, HepG2; format: cell-based; conditions: Homo sapiens, 72 h
Description: as §1, §2

WI-38 (lung fibroblasts) = experiment: MTT proliferation assay, WI-38; format: cell-based; conditions: Homo sapiens, 72 h, normal lung fibroblasts
Description: as §1, §2

[3] = DPPH radical scavenging assay; format: biochemical
Description: Likewise, L-ASA, the 1,2,3-triazole L-ASA derivatives with free C2-OH and C3-OH groups were expected to be potent antioxidants. Therefore, they were tested as radical scavengers by reaction with the stable free radical 2,2-diphenyl-1-picrylhydrazyl (DPPH^•).
Antioxidant capacity of selected compounds was assessed by 2,2-diphenyl-1-picrylhydrazyl assay (DPPH, Sigma Aldrich, Darmstadt, Germany), in which the antioxidant activity of compounds is measured by the reaction between a stable radical of 1,1-diphenyl-2-picylhydrazil (DPPH^•) and a selected compound according to the manufacturer recommendations. Briefly, compounds 4b–4e, 4f–4h, 4k, 4l, 4o, 4p–4s, 4t, 4v, 7c–7f, 7i–7n, 7q, 7p, and 7o were tested at 0.06, 0.12, 0.18, 0.23, 0.25, and 0.28 mM. L-ascorbic acid was used as the reference compound. Absorbance was measured 5 and 10 min after incubation of the compounds with the DPPH reagent. The reduction of DPPH with selected compounds was monitored by measuring the absorbance at a wavelength of 517 nm on the monochromator (Infinite M200 PRO, TECAN, Männedorf, Switzerland).

[4] = test system: HCT-116 (colorectal carcinoma); experiment: MTT proliferation assay, HCT-116; format: cell-based; conditions: Homo sapiens, 72 h
Description: as §1, §2

[5] = test system: A549 (lung adenocarcinoma); experiment: MTT proliferation assay, A549; format: cell-based; conditions: Homo sapiens, 72 h
Description: as §1, §2

[6] = test system: CFPAC-1 (ductal pancreatic adenocarcinoma); experiment: MTT proliferation assay, CFPAC-1; format: cell-based; conditions: Homo sapiens, 72 h
Description: as §1, §2

[7] = test system: MCF-7 (breast adenocarcinoma); experiment: MTT proliferation assay, MCF-7; format: cell-based, Human; conditions: Homo sapiens, MCF7; 72 h, MTT
Description: as §1, §2

[8] = test system: HeLa (cervical carcinoma); experiment: MTT proliferation assay, HeLa; format: cell-based; conditions: Homo sapiens, 72 h
Description: as §1, §2

[9] = 5 min treatment, read-out: IC50 of DPPH• inhibition, Treatm. 5 min
[10] = 10 min treatment, read-out: IC50 of DPPH• inhibition, Treatm. 10 min

## O=C1O[C@H]([C@@H](O)Cn2cc(CSC(=S)N3CCNCC3)nn2)C(O)=C1O [Compound 4v]
[1]
  IC50: > 100 µM
other
  melting point: ≥ 250 °C
[2]
  IC50: > 100 µM
WI-38 (lung fibroblasts)
  IC50: > 100 µM
[3]; [9]
  IC50: 270 ± 10 µM
[3]; [10]
  IC50: 270 µM
[4]
  IC50: > 100 µM
[5]
  IC50: 98 µM
[6]
  IC50: > 100 µM
[7]
  IC50: 37.3 µM
[8]
  IC50: > 100 µM

## O=c1[nH]cc(F)c(=O)[nH]1 [Compound 5-FU, 5-fluorouracil, reference compound]
[1]
  IC50: 0.08 µM
[2]
  IC50: 9.04 µM
WI-38 (lung fibroblasts)
  IC50: 0.94 µM
[5]
  IC50: 2.8 µM
[6]
  IC50: 0.14 µM
[7]
  IC50: 0.096 µM
[8]
  IC50: 8.81 µM

## O=C1O/C(=C\Cn2cc(-c3cc(C(F)(F)F)cc(C(F)(F)F)c3)nn2)C(O)=C1O [Compound 7c, 4,5-didehydro-5,6-dideoxy-(4-(3,5-di-(trifluoromethyl)phenyl)-1,2,3-triazol-1-yl)-L-ascorbic acid]
[1]
  IC50: > 100 µM
other
  melting point: ≥ 200 °C
[2]
  IC50: > 100 µM
WI-38 (lung fibroblasts)
  IC50: > 100 µM
[4]
  IC50: > 100 µM
[5]
  IC50: > 100 µM
[6]
  IC50: > 100 µM
[7]
  IC50: > 100 µM
[8]
  IC50: > 100 µM

## O=C1O/C(=C\Cn2cc(-c3cc(F)cc(F)c3)nn2)C(O)=C1O [Compound 7d]
[1]
  IC50: > 100 µM
other
  melting point: ≥ 200 °C
[2]
  IC50: > 100 µM
WI-38 (lung fibroblasts)
  IC50: > 100 µM
[3]; [9]
  IC50: 230 µM
[3]; [10]
  IC50: 230 µM
[4]
  IC50: > 100 µM
[5]
  IC50: > 100 µM
[6]
  IC50: > 100 µM
[7]
  IC50: > 100 µM
[8]
  IC50: > 100 µM

## O=C1O/C(=C\Cn2cc(-c3ccc(Br)cc3)nn2)C(O)=C1O [Compound 7e, 6-[4-(4-bromophenyl)-1,2,3-triazole-1-yl]-4,5-didehydro-5,6-dideoxy-L-ascorbic acid]
[1]
  IC50: > 100 µM
other
  melting point: 219 to 222 °C
[2]
  IC50: > 100 µM
WI-38 (lung fibroblasts)
  IC50: > 100 µM
[4]
  IC50: > 100 µM
[5]
  IC50: > 100 µM
[6]
  IC50: > 100 µM
[7]
  IC50: > 100 µM
[8]
  IC50: > 100 µM

## Cc1ccc(-c2cn(C/C=C3\OC(=O)C(O)=C3O)nn2)cc1 [Compound 7f, 6-[4-tolyl-1,2,3-triazole-1-yl]-4,5-didehydro-5,6-dideoxy-L-ascorbic acid]
[1]
  IC50: > 100 µM
other
  melting point: 188 to 192 °C
[2]
  IC50: > 100 µM
WI-38 (lung fibroblasts)
  IC50: > 100 µM
[3]; [9]
  IC50: 100 ± 20 µM
[3]; [10]
  IC50: 100 ± 20 µM
[4]
  IC50: > 100 µM
[5]
  IC50: > 100 µM
[6]
  IC50: > 100 µM
[7]
  IC50: > 100 µM
[8]
  IC50: > 100 µM

## COc1ccc(-c2cn(C/C=C3\OC(=O)C(O)=C3O)nn2)cc1 [Compound 7g, 4,5-didehydro-5,6-dideoxy-6-[4-(4-methoxyphenyl)-1,2,3-triazole-1-yl]-L-ascorbic acid]
[1]
  IC50: > 100 µM
other
  melting point: 198 to 199 °C
[2]
  IC50: > 100 µM
WI-38 (lung fibroblasts)
  IC50: > 100 µM
[3]; [9]
  IC50: > 280 µM
[3]; [10]
  IC50: 260 µM
[4]
  IC50: > 100 µM
[5]
  IC50: > 100 µM
[6]
  IC50: > 100 µM
[7]
  IC50: > 100 µM
[8]
  IC50: > 100 µM

## O=C1O/C(=C\Cn2cc(-c3ccccc3O)nn2)C(O)=C1O [Compound 7i, 4,5-didehydro-5,6-dideoxy-6-[4-(2-hydroxyphenyl)-1,2,3-triazole-1-yl]-L-ascorbic acid]
[1]
  IC50: > 100 µM
other
  melting point: 167 to 169 °C
[2]
  IC50: > 100 µM
WI-38 (lung fibroblasts)
  IC50: > 100 µM
[3]; [9]
  IC50: 100 ± 50 µM
[3]; [10]
  IC50: 100 ± 40 µM
[4]
  IC50: > 100 µM
[5]
  IC50: > 100 µM
[6]
  IC50: > 100 µM
[7]
  IC50: > 100 µM
[8]
  IC50: > 100 µM

## O=C1O/C(=C\Cn2cc(-c3cccc(O)c3)nn2)C(O)=C1O [Compound 7j, 4,5-didehydro-5,6-dideoxy-6-[4-(3-hydroxyphenyl)-1,2,3-triazole-1-yl]-L-ascorbic acid]
[1]
  IC50: > 100 µM
other
  melting point: 155 to 157 °C
[2]
  IC50: > 100 µM
WI-38 (lung fibroblasts)
  IC50: > 100 µM
[4]
  IC50: > 100 µM
[5]
  IC50: > 100 µM
[6]
  IC50: > 100 µM
[7]
  IC50: > 100 µM
[8]
  IC50: > 100 µM

## CCCCCc1ccc(-c2cn(C/C=C3\OC(=O)C(O)=C3O)nn2)cc1 [Compound 7k, 4,5-didehydro-5,6-dideoxy-6-[4-(4-pentylphenyl)-1,2,3-triazole-1-yl]-L-ascorbic acid]
[1]
  IC50: > 100 µM
other
  melting point: 230 to 232 °C
[2]
  IC50: > 100 µM
WI-38 (lung fibroblasts)
  IC50: > 100 µM
[4]
  IC50: > 100 µM
[5]
  IC50: > 100 µM
[6]
  IC50: > 100 µM
[7]
  IC50: > 100 µM
[8]
  IC50: > 100 µM

## O=C1O/C(=C\Cn2cc(C3CC3)nn2)C(O)=C1O [Compound 7l, 6-[4-cyclopropyl-1,2,3-triazole-1-yl]-4,5-didehydro-5,6-dideoxy-L-ascorbic acid]
[1]
  IC50: > 100 µM
other
  melting point: 176 to 178 °C
[2]
  IC50: > 100 µM
WI-38 (lung fibroblasts)
  IC50: > 100 µM
[3]; [9]
  IC50: 200 ± 10 µM
[3]; [10]
  IC50: 200 µM
[4]
  IC50: > 100 µM
[5]
  IC50: > 100 µM
[6]
  IC50: > 100 µM
[7]
  IC50: > 100 µM
[8]
  IC50: > 100 µM

## CCCCc1cn(C/C=C2\OC(=O)C(O)=C2O)nn1 [Compound 7m, 6-[4-butyl-1,2,3-triazole-1-yl]-4,5-didehydro-5,6-dideoxy-L-ascorbic acid]
[1]
  IC50: > 100 µM
other
  melting point: 180 to 183 °C
[2]
  IC50: > 100 µM
WI-38 (lung fibroblasts)
  IC50: > 100 µM
[3]; [9]
  IC50: 200 µM
[3]; [10]
  IC50: 190 µM
[4]
  IC50: > 100 µM
[5]
  IC50: > 100 µM
[6]
  IC50: > 100 µM
[7]
  IC50: > 100 µM
[8]
  IC50: > 100 µM
